Measured values: patent US11247972B2, “Compositions and methods for treating toxoplasmosis, cryptosporidiosis, and other apicomplexan protozoan related diseases” (University of Washington through its Center for …, priority 2010, dated 2022)

Experiments:
PfCDPK1 = PfCDPK1 (Plasmodium falciparum (isolate 3D7), UniProt P62344); assay: biochemical; details: read-out: PfCDPK1 (% inhibition @ 3 uM)
PfCDPK4 = PfCDPK4 (Plasmodium falciparum (isolate 3D7), UniProt Q8IBS5); assay: biochemical; details: read-out: PfCDPK4 (% inhibition @ 3 uM)

Row | SMILES | inhibition at 3 µM (PfCDPK1) [%] | inhibition at 3 µM (PfCDPK4) [%]
1 | CCN1CCC(CCn2nc(Cc3cccc4ccccc34)c3c(N)ncnc32)CC1 [Compound 5o, 1-(2-(1-ethylpiperidin-4-yl)ethyl)-3-(naphthalen-1-ylmethyl)-1H-pyrazolo[3,4-d]pyrimidin-4-amine] | 71 | 37
2 | Cc1cc(-c2nn(CC3CCNCC3)c3ncnc(N)c23)ccc1-c1ccccc1 [Compound 118] | 97 | 81
3 | Nc1ncnc2c1c(-c1ccc3oc(-c4ccccc4)nc3c1)nn2CC1CCNCC1 [Compound 120] | 101 | 90
4 | Nc1ncnc2c1c(-c1ccc(-c3ccccc3)cc1)nn2CC1CCNCC1 [Compound 100] | 101 | 68
5 | COc1cc(COc2cccc(-c3nn(C(C)C)c4ncnc(N)c34)c2)cc(OC)c1 [Compound 22, 3-(3-(3,5-dimethoxybenzyloxy)phenyl)-1-isopropyl-1H-pyrazolo[3,4-d]pyrimidin-4-amine] | 71 | 9
6 | O=C(CCCC1CCNCC1)Nc1nc2ccc(C(=O)c3ccccc3)cc2[nH]1 [Compound 115] | 71 | 84
7 | CC(C)n1nc(-c2cncnc2)c2c(N)ncnc21 [Compound 18, 1-isopropyl-3-(pyrimidin-5-yl)-1H-pyrazolo[3,4-d]pyrimidin-4-amine] |  | 4
8 | CCCOc1ccc2cc(-c3nn(CC4CCNCC4)c4ncnc(N)c34)ccc2c1 [Compound 33, 1-(piperidin-4-ylmethyl)-3-(6-propoxynaphthalen-2-yl)-1H-pyrazolo[3,4-d]pyrimidin-4-amine] |  | 98
9 | CC(C)n1nc(-c2cccc(Cc3ccccc3)c2)c2c(N)ncnc21 [Compound 7y, 3-(3-benzylphenyl)-1-isopropyl-1H-pyrazolo[3,4-d]pyrimidin-4-amine] |  | 17
10 | CCN1CCC(n2nc(Cc3cccc4ccccc34)c3c(N)ncnc32)CC1 [Compound 5m, 1-(1-ethylpiperidin-4-yl)-3-(naphthalen-1-ylmethyl)-1H-pyrazolo[3,4-d]pyrimidin-4-amine] |  | 42
11 | Nc1ncnc2c1c(Cc1cccc3ccccc13)nn2C1CCCCC1 [Compound 5f, 1-cyclohexyl-3-(naphthalen-1-ylmethyl)-1H-pyrazolo[3,4-d]pyrimidin-4-amine] |  | 15
12 | CC(C)n1nc(-c2cccnc2)c2c(N)ncnc21 [Compound 16, 1-isopropyl-3-(pyridin-3-yl)-1H-pyrazolo[3,4-d]pyrimidin-4-amine] |  | 13
13 | CC(C)n1nc(Cc2ccc3ccccc3c2)c2c(N)ncnc21 [Compound 14, 1-isopropyl-3-(naphthalen-2-ylmethyl)-1H-pyrazolo[3,4-d]pyrimidin-4-amine] |  | 13
14 | CC(=O)N1CCC(n2nc(Cc3cccc4ccccc34)c3c(N)ncnc32)CC1 [Compound 5j, 1-(4-(4-amino-3-(naphthalen-1-ylmethyl)-1H-pyrazolo[3,4-d]pyrimidin-1-yl)piperidin-1-yl)ethanone] |  | 48
15 | C#CCn1nc(Cc2cccc3ccccc23)c2c(N)ncnc21 [Compound 5b, 3-(naphthalen-1-ylmethyl)-1-(prop-2-ynyl)-1H-pyrazolo[3,4-d]pyrimidin-4-amine] |  | 20
16 | CC(C)n1nc(-c2ccc3c(ccn3C)c2)c2c(N)ncnc21 [Compound 20, 1-isopropyl-3-(1-methyl-1H-indol-5-yl)-1H-pyrazolo[3,4-d]pyrimidin-4-amine] |  | 93

Row | SMILES | inhibition at 3 µM (PfCDPK1) [%] | inhibition at 3 µM (PfCDPK4) [%]
17 | CS(=O)(=O)N1CCC(n2nc(Cc3cccc4ccccc34)c3c(N)ncnc32)CC1 [Compound 5p, 1-(1-(methylsulfonyl)piperidin-4-yl)-3-(naphthalen-1-ylmethyl)-1H-pyrazolo[3,4-d]pyrimidin-4-amine] |  | 53
18 | CC(C)n1nc(-c2ccnc(Cl)c2)c2c(N)ncnc21 [Compound 19, 3-(2-chloropyridin-4-yl)-1-isopropyl-1H-pyrazolo[3,4-d]pyrimidin-4-amine] |  | 14
19 | COc1ccc2[nH]c(-c3nn(C(C)C)c4ncnc(N)c34)cc2c1 [Compound 27, 1-isopropyl-3-(5-methoxy-1H-indol-2-yl)-1H-pyrazolo[3,4-d]pyrimidin-4-amine] |  | 44
20 | Nc1ncnc2c1c(Cc1cccc3ccccc13)nn2Cc1ccccc1 [Compound 5e, 1-benzyl-3-(naphthalen-1-ylmethyl)-1H-pyrazolo[3,4-d]pyrimidin-4-amine] |  | 5
21 | CC(C)Oc1ccc2cc(-c3nn(CC4CCNCC4)c4ncnc(N)c34)ccc2c1 [Compound 32, 3-(6-isopropoxynaphthalen-2-yl)-1-(piperidin-4-ylmethyl)-1H-pyrazolo[3,4-d]pyrimidin-4-amine] |  | 96
22 | CC(C)n1nc(-c2cccc3c2sc2ccccc23)c2c(N)ncnc21 [Compound 7x, 3-(dibenzo[b,d]thiophen-4-yl)-1-isopropyl-1H-pyrazolo[3,4-d]pyrimidin-4-amine] |  | 21
23 | C=CCOc1ccc2cc(-c3nn(CC4CCNCC4)c4ncnc(N)c34)ccc2c1 [Compound 36, 3-(6-(allyloxy)naphthalen-2-yl)-1-(piperidin-4-ylmethyl)-1H-pyrazolo[3,4-d]pyrimidin-4-amine] |  | 99
24 | Nc1ncnc2c1c(-c1ccc3cc(OCc4ccccc4Cl)ccc3c1)nn2CC1CCNCC1 [Compound 37, 3-(6-(2-chlorobenzyloxy)naphthalen-2-yl)-1-(piperidin-4-ylmethyl)-1H-pyrazolo[3,4-d]pyrimidin-4-amine] |  | 96
25 | Nc1ncnc2c1c(-c1ccc3cc(OCc4cccc(Cl)c4)ccc3c1)nn2CC1CCNCC1 [Compound 38, 3-(6-(3-chlorobenzyloxy)naphthalen-2-yl)-1-(piperidin-4-ylmethyl)-1H-pyrazolo[3,4-d]pyrimidin-4-amine] |  | 96
26 | CC(C)n1nc(-c2cc3ccccc3[nH]2)c2c(N)ncnc21 [Compound 24, 3-(1H-indol-2-yl)-1-isopropyl-1H-pyrazolo[3,4-d]pyrimidin-4-amine] |  | 93
27 | CC(C)n1nc(-c2ccc3c(c2)CCCO3)c2c(N)ncnc21 [Compound 7w, 3-(chroman-6-yl)-1-isopropyl-1H-pyrazolo[3,4-d]pyrimidin-4-amine] |  | 55
28 | CCCCOc1ccc2cc(-c3nn(CC4CCNCC4)c4ncnc(N)c34)ccc2c1 [Compound 35, 3-(6-butoxynaphthalen-2-yl)-1-(piperidin-4-ylmethyl)-1H-pyrazolo[3,4-d]pyrimidin-4-amine] |  | 99
29 | Cn1nc(Cc2cccc3ccccc23)c2c(N)ncnc21 [Compound 5a, 1-methyl-3-(naphthalen-1-ylmethyl)-1H-pyrazolo[3,4-d]pyrimidin-4-amine] |  | 52
30 | Nc1ncnc2c1c(Cc1cccc3ccccc13)nn2C1CCOCC1 [Compound 15, 3-(naphthalen-1-ylmethyl)-1-(tetrahydro-2H-pyran-4-yl)-1H-pyrazolo[3,4-d]pyrimidin-4-amine] |  | 11
31 | Nc1ncnc2c1c(Cc1cccc3ccccc13)nn2C1CCCC1 [Compound 13, 1-cyclopentyl-3-(naphthalen-1-ylmethyl)-1H-pyrazolo[3,4-d]pyrimidin-4-amine] |  | 25
